Experimental data published in patent US8293909B2, “Compounds for the treatment of hepatitis C” (Bristol-Myers Squibb Company, priority 2008, dated 2012).

Key:
HCV replicon cells = assay: HCV replicon assay (FRET or luciferase readout); format: cell-based; conditions: Hepatitis C virus
Text: FRET Assay Preparation. To perform the HCV FRET screening assay, 96-well cell culture plates were used. The FRET peptide (Anaspec, Inc.) (Taliani et al., Anal. Biochem. 1996, 240, 60-67) contains a fluorescence donor, EDANS, near one end of the peptide and an acceptor, DABCYL, near the other end. The fluorescence of the peptide is quenched by […] resonance energy transfer (RET) between the donor and the acceptor, but as the NS3 protease cleaves the peptide the products are released from RET quenching and the fluorescence of the donor becomes apparent. The assay reagent was made as follows: 5× cell Luciferase cell culture lysis reagent from Promega (#E153A) diluted to 1× with dH2O, NaCl added to 150 mM final, the FRET peptide diluted to 20 μM final from a 2 mM stock.
To prepare plates, HCV replicon cells, with or without a Renilla luciferase reporter gene, were trypsinized and placed into each well of a 96-well plate with titrated test compounds added in columns 3 through 12; columns 1 and 2 contained a control compound (HCV protease inhibitor), and the bottom row contained cells without compound. The plates were then placed in a CO2 incubator at 37° C.
Assays. Subsequent to addition of the test compounds described above (FRET Assay Preparation), at various times the plate was removed and Alamar blue solution (Trek Diagnostics, #00-100) was added per well as a measure of cellular toxicity. After reading in a Cytoflour 4000 instrument (PE Biosystems), plates were rinsed with PBS and then used for FRET assay by the addition of 30 ul of the FRET peptide assay reagent described above (FRET Assay Preparation) per well. The plate was then placed into the Cytoflour 4000 instrument which had been set to 340 excite/490 emission, automatic mode for 20 cycles and the plate read in a kinetic mode. Typically, the signal to noise using an endpoint analysis after the reads was at least three-fold. Alternatively, after Alamar blue reading, plates were rinsed with PBS, 50 ul of DMEM (high glucose) without phenol red was added and plates were then used for luciferase assay using the Promega Dual-Glo Luciferase Assay System.
Compound analysis was determined by quantification of the relative HCV replicon inhibition and the relative cytotoxicity values. To calculate cytoxicity values, the average Alamar Blue fluorescence signals from the control wells were set as 100% non-toxic. The individual signals in each of the compound test wells were then divided by the average control signal and multiplied by 100% to determine […]. To calculate the HCV replicon inhibition values, an average background value was obtained from the two wells containing the highest amount of HCV protease inhibitor at the end of the assay period. These numbers were similar to those obtained from naïve Huh-7 cells.
The background numbers were then subtracted from the average signal obtained from the control wells and this number was used as 100% activity. The individual signals in each of the compound test wells were then divided by the averaged control values after background subtraction and multiplied by 100% to determine percent activity. EC50 values for a protease inhibitor titration were calculated as the concentration which caused a 50% reduction in FRET or luciferase activity. The two numbers generated for the compound plate, percent cytoxicity and percent activity were used to determine compounds of interest for further analysis.

[1] = biological target: T1, HCV NS5B RdRp genotype 1b (Hepatitis C virus genotype 1b, UniProt Q9WMX2); assay: HCV NS5B RdRp enzyme assay (standard / modified); format: biochemical; conditions: HCV NS5B genotype 1b
T1 construct: The protein was expressed with an 18 amino acid C-terminal truncation to enhance the solubility; made in house; host or cells: E. coli BL21(DE3), pET21a vector
T1 sequence (Q9WMX2 2420-2992): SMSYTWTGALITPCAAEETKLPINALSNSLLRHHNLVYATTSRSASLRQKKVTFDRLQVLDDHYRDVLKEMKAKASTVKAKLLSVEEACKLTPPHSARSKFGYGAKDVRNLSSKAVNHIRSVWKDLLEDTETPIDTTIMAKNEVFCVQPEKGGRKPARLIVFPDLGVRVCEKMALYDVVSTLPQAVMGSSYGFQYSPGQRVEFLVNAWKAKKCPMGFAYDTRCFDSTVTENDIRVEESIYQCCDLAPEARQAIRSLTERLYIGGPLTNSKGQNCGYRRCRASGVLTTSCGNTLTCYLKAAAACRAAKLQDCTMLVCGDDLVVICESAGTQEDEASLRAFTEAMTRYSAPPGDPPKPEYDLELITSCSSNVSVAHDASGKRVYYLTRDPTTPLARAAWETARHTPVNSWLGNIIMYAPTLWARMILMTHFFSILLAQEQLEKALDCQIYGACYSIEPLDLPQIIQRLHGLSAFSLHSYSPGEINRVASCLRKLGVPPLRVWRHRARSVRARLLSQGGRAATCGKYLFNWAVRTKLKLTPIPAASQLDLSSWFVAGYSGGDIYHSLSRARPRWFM
Method: HCV NS5B RdRp cloning, expression, and purification. The cDNA encoding the NS5B protein of HCV, genotype 1b, was cloned into the pET21a expression vector. The protein was expressed with an 18 amino acid C-terminal truncation to enhance the solubility. The E. coli competent cell line BL21(DE3) was used for expression of the protein. Cultures were grown at 37° C. for ˜4 hours until the cultures reached an optical density of 2.0 at 600 nm. The cultures were cooled to 20° C. and induced with 1 mM IPTG. Fresh ampicillin was added to a final concentration of 50 μg/ml and the cells were grown overnight at 20° C.
Cell pellets (3 L) were lysed for purification to yield 15-24 mgs of purified NS5B. The lysis buffer consisted of 20 mM Tris-HCl, pH 7.4, 500 mM NaCl, 0.5% triton X-100, 1 mM DTT, 1 mM EDTA, 20% glycerol, 0.5 mg/ml lysozyme, 10 mM MgCl2, 15 ug/ml deoxyribonuclease I, and Complete™ protease inhibitor tablets (Roche). After addition of the lysis buffer, frozen cell pellets were resuspended using a tissue homogenizer. To reduce the viscosity of the sample, aliquots of the lysate were sonicated on ice using a microtip attached to a Branson sonicator. The sonicated lysate was centrifuged at 100,000×g for 1 hr at 4° C. and filtered through a 0.2 μm filter unit (Corning).
The protein was purified using three sequential chromatography steps: Heparin sepharose CL-6B, polyU sepharose 4B, and Hitrap SP sepharose (Pharmacia). The chromatography buffers were identical to the lysis buffer but contained no lysozyme, deoxyribonuclease I, MgCl2 or protease inhibitor and the NaCl concentration of the buffer was adjusted according to the requirements for charging the protein onto the column. Each column was eluted with a NaCl gradient which varied in length from 5-50 column volumes depending on the column type. After the final chromatography step, the resulting purity of the enzyme is >90% based on SDS-PAGE analysis. The enzyme was aliquoted and stored at −80° C.
Standard HCV NS5B RdRp enzyme assay. HCV RdRp genotype 1b assays were run in a final volume of 60 μl in 96 well plates (Costar 3912). The assay buffer is composed of 20 mM Hepes, pH 7.5, 2.5 mM KCl, 2.5 mM MgCl2, 1 mM DTT, 1.6 U RNAse inhibitor (Promega N2515), 0.1 mg/ml BSA (Promega R3961), and 2% glycerol. All compounds were serially diluted (3-fold) in DMSO and diluted further in water such that the final concentration of DMSO in the assay was 2%. HCV RdRp genotype 1b enzyme was used at a final concentration of 28 nM. A polyA template was used at 6 nM, and a biotinylated oligo-dT12 primer was used at 180 nM final concentration. Template was obtained commercially (Amersham 27-4110). Biotinylated primer was prepared by Sigma Genosys. 3H-UTP was used at 0.6 μCi (0.29 μM total UTP). Reactions were initiated by the addition of enzyme, incubated at 30° C. for 60 min, and stopped by adding 25 μl of 50 mM EDTA containing SPA beads (4 μg/μl, Amersham RPNQ 0007). Plates were read on a Packard Top Count NXT after >1 hr incubation at room temperature.
Modified HCV NS5B RdRp enzyme assay. A modified enzyme assay was performed essentially as described for the standard enzyme assay except for the following: The biotinylated oligo dT12 primer was precaptured on streptavidin-coated SPA beads by mixing primer and beads in assay buffer and incubating at room temperature for one hour. Unbound primer was removed after centrifugation. The primer-bound beads were resuspended in 20 mM Hepes buffer, pH 7.5 and used in the assay at final concentrations of 20 nM primer and 0.67 μg/μl beads. Order of addition in the assay: enzyme (14 nM) was added to diluted compound followed by the addition of a mixture of template (0.2 nM), 3H-UTP (0.6 μCi, 0.29 μM), and primer-bound beads, to initiate the reaction; concentrations given are final. Reactions were allowed to proceed for 4 hours at 30° C.
IC50 values for compounds were determined using seven different [I]. […]

## CNC(=O)c1c(-c2ccc(F)cc2)nn2ccc(-c3cccc(C(=O)NC4(c5ccccc5)CCC4)c3)cc12
HCV replicon cells; Table 1
  EC50: 2 to 250 nM
[1]; Table 1
  IC50: 2 to 250 nM

## CNC(=O)c1c(-c2ccc(F)cc2)nn2cc(F)c(-c3cc(C(=O)NC4(c5ccccc5)CC4)ccc3C)cc12
HCV replicon cells; Table 1
  EC50: 2 to 250 nM
[1]; Table 1
  IC50: 2 to 250 nM

## CNC(=O)c1c(-c2ccc(F)cc2)nc2ccc(-c3cc(C(=O)NC(C)(C)c4ccccc4)ccc3Cl)cn12
HCV replicon cells; Table 1
  EC50: 2 to 250 nM
[1]; Table 1
  IC50: 2 to 250 nM

## CNC(=O)c1c(-c2ccc(F)cc2)nc2ccc(-c3cc(C(=O)NC(C)(C)c4ccccc4)ccc3OC)cn12
HCV replicon cells; Table 1
  EC50: 2 to 250 nM
[1]; Table 1
  IC50: 2 to 250 nM

## CNC(=O)c1c(-c2ccc(F)cc2)oc2ncc(-c3cc(C(=O)NC4(c5ccccn5)CC4)ccc3C)cc12 [drawing 116]
HCV replicon cells; Table 1
  EC50: 2 to 250 nM
[1]; Table 1
  IC50: 2 to 250 nM

## CNC(=O)c1c(-c2ccc(F)cc2)sc2ccc(-c3cccc(C(=O)NC4(c5ccccc5)CCC4)c3)cc12
HCV replicon cells; Table 1
  EC50: 2 to 250 nM
[1]; Table 1
  IC50: 2 to 250 nM

## CNC(=O)c1c(-c2ccc(F)cc2)nn2cc(N)ccc12
HCV replicon cells; Table 1
  EC50: > 10000 nM
[1]; Table 1
  IC50: > 10000 nM

## CNC(=O)c1cccc(-c2ccc3c(C(=O)NC)c(-c4ccccc4)nn3c2)c1
HCV replicon cells; Table 1
  EC50: > 10000 nM
[1]; Table 1
  IC50: > 10000 nM

## CNC(=O)c1c(-c2ccc(F)cc2)oc2ncc(-c3cccc(C(=O)NC(C)(C)c4ccccc4)c3)cc12
HCV replicon cells; Table 1
  EC50: 2 to 250 nM
[1]; Table 1
  IC50: 2 to 250 nM

## CNC(=O)c1c(-c2ccc(F)cc2)nn2ccc(-c3cc(C(=O)NC4(c5ccccn5)CC4)ccc3C)cc12 [drawing 179]
HCV replicon cells; Table 2
  EC50: 10 nM
[1]; Table 2
  IC50: 5.15 nM

## CNC(=O)c1c(-c2ccccc2)nn2cc(I)ccc12
HCV replicon cells; Table 1
  EC50: > 10000 nM
[1]; Table 1
  IC50: > 10000 nM

## CNC(=O)c1c(-c2ccc(F)cc2)nn2cc(NC(=O)C(F)(F)F)ccc12
HCV replicon cells; Table 1
  EC50: > 10000 nM
[1]; Table 1
  IC50: > 10000 nM

## CCOc1ccccc1-c1ccc2c(C(=O)NC)c(-c3ccc(F)cc3)nn2c1
HCV replicon cells; Table 1
  EC50: > 10000 nM
[1]; Table 1
  IC50: > 10000 nM

## CNC(=O)c1c(-c2ccc(F)cc2)nn2ccc(-c3cc(C(=O)NC4(c5nc(C)no5)CC4)ccc3C)c(F)c12
HCV replicon cells; Table 1
  EC50: > 10000 nM
[1]; Table 1
  IC50: 1000 to 10000 nM

## CNC(=O)c1c(-c2ccc(F)cc2)nn2ccc(-c3cc(C(=O)NC4(c5ccccc5F)CC4)c(OC)cc3C)c(F)c12
HCV replicon cells; Table 1
  EC50: 250 to 1000 nM
[1]; Table 1
  IC50: 2 to 250 nM

## CNC(=O)c1c(-c2ccc(F)cc2)oc2ncc(-c3cccc(C(=O)NC(C)(C)C)c3)cc12
HCV replicon cells; Table 1
  EC50: 2 to 250 nM
[1]; Table 1
  IC50: 2 to 250 nM

## CNC(=O)c1c(-c2ccc(F)cc2)nc2cc(C)c(-c3cc(C(=O)NC(C)(C)c4ccccc4)ccc3C)cn12
HCV replicon cells; Table 1
  EC50: 2 to 250 nM
[1]; Table 1
  IC50: 2 to 250 nM

## CCN(c1cn2nc(-c3ccc(F)cc3)c(C(=O)NC)c2cc1-c1cc(C(=O)NC2(c3ccc(F)cc3)CC2)ccc1C)S(C)(=O)=O
HCV replicon cells; Table 1
  EC50: 2 to 250 nM
[1]; Table 1
  IC50: 2 to 250 nM

## CCN(c1cn2nc(-c3ccc(F)cc3)c(C(=O)NC)c2cc1-c1cccc(C(=O)NC(C)(C)c2ccccc2)c1)S(C)(=O)=O [drawing 176]
HCV replicon cells; Table 2
  EC50: 5.98 nM
[1]; Table 2
  IC50: 9.6 nM

## CNC(=O)c1c(-c2ccc(F)cc2)nn2ccc(NC(=O)c3cccc(OC)c3)cc12
HCV replicon cells; Table 1
  EC50: > 10000 nM
[1]; Table 1
  IC50: > 10000 nM

## CNC(=O)c1c(-c2ccc(F)cc2)nn2ccc(-c3cc(C(=O)NC4(C5CCCCC5)CC4)c(OC)cc3C)c(F)c12
HCV replicon cells; Table 1
  EC50: 2 to 250 nM
[1]; Table 1
  IC50: 2 to 250 nM

## CNC(=O)c1c(-c2ccc(F)cc2)nn2cc(N(CC3CC3)S(C)(=O)=O)c(-c3cccc(C(=O)NC(C)(C)c4ccccc4)c3)cc12
HCV replicon cells; Table 1
  EC50: 2 to 250 nM
[1]; Table 1
  IC50: 2 to 250 nM

## CNC(=O)c1c(-c2ccc(F)cc2)nn2ccc(-c3cc(C(=O)NC4(c5ccccc5)CCC4)ccc3C)cc12
HCV replicon cells; Table 1
  EC50: 2 to 250 nM
[1]; Table 1
  IC50: 2 to 250 nM

## CNC(=O)c1c(-c2ccc(F)cc2)nn2cccc(NC(=O)OC(C)(C)C)c12
HCV replicon cells; Table 1
  EC50: > 10000 nM
[1]; Table 1
  IC50: > 10000 nM

## CNC(=O)c1c(-c2ccc(F)cc2)nn2cc(NS(C)(=O)=O)c(-c3cccc(C(=O)NC(C)(C)c4ccccc4)c3)cc12
HCV replicon cells; Table 1
  EC50: 1000 to 10000 nM
[1]; Table 1
  IC50: 2 to 250 nM

## CNC(=O)c1c(-c2ccc(F)cc2)nn2c(C)cc(-c3cc(C(=O)NC4(c5ccccc5)CC4)ccc3C)cc12
HCV replicon cells; Table 1
  EC50: 2 to 250 nM
[1]; Table 1
  IC50: 2 to 250 nM

## CNC(=O)c1c(-c2ccc(F)cc2)nn2ccc(-c3cccc(C(=O)NC4(c5ccccc5)CC4)c3)cc12
HCV replicon cells; Table 1
  EC50: 2 to 250 nM
[1]; Table 1
  IC50: 2 to 250 nM

## CNC(=O)c1c(-c2ccc(F)cc2)nn2ccc(-n3ccc(C(=O)NC(C)(C)c4ccccc4)c3)cc12
HCV replicon cells; Table 1
  EC50: > 10000 nM
[1]; Table 1
  IC50: 1000 to 10000 nM

## CNC(=O)c1c(-c2ccc(F)cc2)oc2ncc(-c3cccc(C(=O)NC4(c5ccccc5)CC4)c3)cc12
HCV replicon cells; Table 1
  EC50: 2 to 250 nM
[1]; Table 1
  IC50: 2 to 250 nM
